Marks after values point to notes of the source that are not given here.
Tested on: rats
Assay: 28-day repeated dose study in rats with mass spectrometry-based plasma metabolite profiling (GC-MS, LC-MS, SPE-LC-MS); treatment ratios versus control
Details: plasma; for Adrenaline (Epinephrine), treatment ratio versus control / Glucosamine, treatment ratio versus control / Histamine, treatment ratio versus control / Mannosamine, treatment ratio versus control: Table 2b glomerular-tubular defect; for 4-Hydroxy-3-methoxyphenylglycol (HMPG), treatment ratio versus control / Cysteine, treatment ratio versus control / Isopalmitic acid (C16:0), treatment ratio versus control / Metanephrine, treatment ratio versus control / Normetanephrine, treatment ratio versus control: Table 2d glomerular-tubular defect
[1] = female rats, day 28, high dose, Table 5a tubular necrosis
[2] = female rats, day 28, high dose, Table 5b tubular necrosis
[3] = female rats, day 14, high dose, Table 2a glomerular-tubular defect
[4] = female rats, day 28, high dose, Table 2a glomerular-tubular defect
[5] = male rats, day 7, high dose, Table 2c glomerular-tubular defect
[6] = male rats, day 14, high dose, Table 2c glomerular-tubular defect
[7] = male rats, day 28, high dose, Table 2c glomerular-tubular defect

SMILES: C[C@@H]1[C@H](O)[C@@H](C)/C=C/C=C/C=C/C=C/C=C/C=C/C=C/[C@H](O[C@@H]2O[C@H](C)[C@@H](O)[C@H](N)[C@@H]2O)C[C@@H]2O[C@](O)(C[C@@H](O)C[C@@H](O)[C@H](O)CC[C@@H](O)C[C@@H](O)CC(=O)O[C@H]1C)C[C@H](O)[C@H]2C(=O)O [Amphotericin B]
- Docosahexaenoic acid (C22:cis[4,7,10,13,16,19]6), treatment ratio versus control [1]: 1.32 *
- Docosapentaenoic acid (C22:cis[7,10,13,16,19]5), treatment ratio versus control [1]: 1.23 *
- Eicosanoic acid (C20:0), treatment ratio versus control [1]: 1.18 *
- Glycerol, lipid fraction, treatment ratio versus control [1]: 1.31 *
- Leucine, treatment ratio versus control [1]: 1.21 *
- Phosphate (inorganic and organic phosphates), treatment ratio versus control [1]: 1.25 *
- Hippuric acid, treatment ratio versus control [2]: 0.44 *
- Lactate, treatment ratio versus control [2]: 0.68 *

SMILES: C[C@H](CS)C(=O)N1CCC[C@H]1C(=O)O [Captopril]
- 3-Hydroxyindole, treatment ratio versus control [3]: 1.35
- 3-Indoxylsulfate, treatment ratio versus control [3]: 1.2
- Creatine, treatment ratio versus control [3]: 1.18*
- Creatinine, treatment ratio versus control [3]: 1.06
- Elaidic acid (C18:trans[9]1), treatment ratio versus control [3]: 1.18
- Lysophosphatidylcholine (C20:4), treatment ratio versus control [3]: 1.04
- Xylitol, treatment ratio versus control [3]: 1.17
- Adrenaline (Epinephrine), treatment ratio versus control (female rats, day 14, high dose): 1.27
- Glucosamine, treatment ratio versus control (female rats, day 14, high dose): 0.4 *
- Histamine, treatment ratio versus control (female rats, day 14, high dose): 0.93
- Mannosamine, treatment ratio versus control (female rats, day 14, high dose): 0.69 *
- 3-Hydroxyindole, treatment ratio versus control [4]: 1.21 *
- 3-Indoxylsulfate, treatment ratio versus control [4]: 1.21 *
- Creatine, treatment ratio versus control [4]: 1.33 *
- Creatinine, treatment ratio versus control [4]: 1.93 *
- Elaidic acid (C18:trans[9]1), treatment ratio versus control [4]: 1.22 *
- Lysophosphatidylcholine (C20:4), treatment ratio versus control [4]: 1.24 *
- Xylitol, treatment ratio versus control [4]: 1.31 *
- Adrenaline (Epinephrine), treatment ratio versus control (female rats, day 28, high dose): 0.28 *
- Glucosamine, treatment ratio versus control (female rats, day 28, high dose): 1.06^
- Histamine, treatment ratio versus control (female rats, day 28, high dose): 0.81 *
- Mannosamine, treatment ratio versus control (female rats, day 28, high dose): 1.04^
- Creatine, treatment ratio versus control [5]: 1.16 *
- Creatinine, treatment ratio versus control [5]: 1.32^
- Glycerol-3-phosphate, polar fraction, treatment ratio versus control [5]: 1.28 *
- Lysophosphatidylcholine (C18:2), treatment ratio versus control [5]: 1.07 *
- Threonic acid, treatment ratio versus control [5]: 1.37 *
- 4-Hydroxy-3-methoxyphenylglycol (HMPG), treatment ratio versus control (male rats, day 7, high dose): 1.07^
- Cysteine, treatment ratio versus control (male rats, day 7, high dose): 0.59 *
- Isopalmitic acid (C16:0), treatment ratio versus control (male rats, day 7, high dose): 0.78 *
- Metanephrine, treatment ratio versus control (male rats, day 7, high dose): 0.81 *
- Normetanephrine, treatment ratio versus control (male rats, day 7, high dose): 0.9
- Creatine, treatment ratio versus control [6]: 1.06 *
- Creatinine, treatment ratio versus control [6]: 1.12 *
- Glycerol-3-phosphate, polar fraction, treatment ratio versus control [6]: 0.97^
- Lysophosphatidylcholine (C18:2), treatment ratio versus control [6]: 1.2 *
- Threonic acid, treatment ratio versus control [6]: 1.27 *
- 4-Hydroxy-3-methoxyphenylglycol (HMPG), treatment ratio versus control (male rats, day 14, high dose): 0.91 *
- Cysteine, treatment ratio versus control (male rats, day 14, high dose): 0.77 *
- Isopalmitic acid (C16:0), treatment ratio versus control (male rats, day 14, high dose): 0.64 *
- Metanephrine, treatment ratio versus control (male rats, day 14, high dose): 0.7 *
- Normetanephrine, treatment ratio versus control (male rats, day 14, high dose): 0.89 *
- Creatine, treatment ratio versus control [7]: 1.31
- Creatinine, treatment ratio versus control [7]: 1.05
- Glycerol-3-phosphate, polar fraction, treatment ratio versus control [7]: 1.29 *
- Lysophosphatidylcholine (C18:2), treatment ratio versus control [7]: 1.09
- Threonic acid, treatment ratio versus control [7]: 1.14 *
- 4-Hydroxy-3-methoxyphenylglycol (HMPG), treatment ratio versus control (male rats, day 28, high dose): 0.86 *
- Cysteine, treatment ratio versus control (male rats, day 28, high dose): 0.72 *
- Isopalmitic acid (C16:0), treatment ratio versus control (male rats, day 28, high dose): 0.83^
- Metanephrine, treatment ratio versus control (male rats, day 28, high dose): 0.76 *
- Normetanephrine, treatment ratio versus control (male rats, day 28, high dose): 0.73 *

Reference: patent US20150011423A1, “MEANS AND METHODS FOR ASSESSING KIDNEY TOXICITY” (BASF SE, priority 2011, published 2015)
